{"source": "patent US9200046B2", "about": "“Reporter system for high throughput screening of compounds and uses thereof” (priority 2011, dated 2015)", "key": {"[1]": {"test_system": "Neh2-luciferase fusion protein in SH-SY5Y cells", "format": "cell-based, human", "conditions": "for lag-period of reporter activation: time-course of Neh2-luc activation", "experimental": "Cells were plated at the density of 25,000 cell per well using a WellMate multichannel dispenser from Matrix (Thermo Fisher Scientific) and grown overnight on DMEM/F12+GlutaMAX (100 μl per well). Then the inhibitor was added, and the plates were incubated for a fixed time interval; the medium was removed, cells lysed in 20 μL (out of which 4 μL were taken for protein measurement), then BrightGlo™ reagent (Promega) was added to the wells and luciferase activity measured on a luminometer Lmax11384 (Molecular Devices). The reporter activation was normalized to the background luminescence divided by protein concentration. Kinetics of reporter activation were measured by adding varied fixed concentrations of an inhibitor at different time points followed by simultaneous cell lysis, protein determination, and luciferase activity measurement in the whole 96-well plate; this assay format minimizes experimental error originating from the well-known instability of luciferase reagent."}, "FLAG-Keap1": {"target": "T1, FLAG-Keap1 (Homo sapiens, UniProt Q14145)", "T1 construct": "expressed in transfected cells; host or cells: HEK293 (transient expression)", "T1 sequence (Q14145 whole entry)": "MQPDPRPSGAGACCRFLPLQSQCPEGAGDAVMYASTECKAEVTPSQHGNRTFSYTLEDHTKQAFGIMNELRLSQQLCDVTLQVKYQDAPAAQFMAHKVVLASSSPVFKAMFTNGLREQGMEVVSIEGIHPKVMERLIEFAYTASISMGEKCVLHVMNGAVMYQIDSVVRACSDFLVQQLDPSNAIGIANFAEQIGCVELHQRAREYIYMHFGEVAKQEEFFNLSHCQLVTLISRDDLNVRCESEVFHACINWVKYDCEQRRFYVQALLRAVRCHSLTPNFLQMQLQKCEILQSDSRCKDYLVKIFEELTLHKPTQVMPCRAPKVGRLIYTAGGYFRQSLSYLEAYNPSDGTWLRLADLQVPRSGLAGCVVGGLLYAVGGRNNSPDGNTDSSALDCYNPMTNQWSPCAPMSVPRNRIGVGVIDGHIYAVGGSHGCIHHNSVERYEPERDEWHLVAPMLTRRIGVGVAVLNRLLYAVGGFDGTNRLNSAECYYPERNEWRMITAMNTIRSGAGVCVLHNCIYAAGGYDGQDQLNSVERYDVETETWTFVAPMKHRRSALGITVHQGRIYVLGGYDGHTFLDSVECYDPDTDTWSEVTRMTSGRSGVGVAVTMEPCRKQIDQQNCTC", "format": "cell-based", "experimental": "FIG. 12. Supporting to FIG. 5. […] A: structural formulas of the compounds used; B: competition with Keap1 labeling. HEK293 cells transiently expressing FLAG-Keap1 were incubated with 200 μM competing compounds (sulforaphane, fisetin, quercetin, gedunin, TBHQ, ciclopirox, geldanamycin) and then further incubated with 10 μM sulfoxythiocarbate-alkyne (STCA) for 30 min at 37° C. FLAG-Keap1 was immunoprecipitated from cell lysates, subjected to click reaction with biotin azide on beads, and eluted with SDS-loading buffer. […] All values are presented as mean±SEM.\nKeap1 labeling experiments were performed as described previously (AHN et al., Proc. Natl. […]. USA., 107: 9590-9595 (2010)) with following modifications. HEK293 cells transiently expressing FLAG-Keap1 were incubated with 200 μM competing compounds (sulforaphane, fisetin, quercetin, gedunin, TBHQ, ciclopirox, geldanamycin) in serum-free DMEM for 1 h. After washing with PBS, cells were further incubated with 10 μM sulfoxythiocarbate-alkyne (STCA) for 30 min at 37° C. FLAG-Keap1 was immunoprecipitated from cell lysates, subjected to click reaction with biotin azide on beads, and eluted with SDS-loading buffer. Eluted samples were immunoblotted with Streptavidin-HRP (Pierce) and anti-FLAG antibodies (Sigma)."}, "ARE-luc reporter": {"test_system": "ARE-luc reporter", "test": "ARE-luc reporter time-course", "format": "cell-based, human"}, "Immature neurons [2]": {"test_system": "Immature neurons"}, "astrocytes": {"test_system": "astrocytes", "test": "Intracellular GSH levels in astrocytes", "format": "cell-based, rat"}, "Immature neurons [3]": {"test_system": "Immature neurons", "test": "Neuronal viability of isolated immature neurons treated with compounds", "conditions": "24 hours"}, "Nrf2-Keap1 complex": {"target": "Nrf2-Keap1 complex (Homo sapiens, UniProt Q14145)", "sequence (Q14145 whole entry, one chain of several)": "as the sequence (Q14145 whole entry) above", "test": "cell-based", "format": "cell-based", "conditions": "for activation at 16 µM / activation at 32 µM: 3 h; for activation at 16 µM: read-out: Activation 100 nL; for activation at 32 µM: read-out: Activation 200 nL; for 100 nL (luminescence) / 200 nL (luminescence): Table 2, screen run at 16 and 32 μM, 3 hr; for 100 nL (luminescence): 100 nL compound; for 200 nL (luminescence): 200 nL compound"}, "primary immature neurons": {"test_system": "primary immature neurons", "test": "Astrocyte-dependent neuroprotection in astrocyte-neuron coculture with HCA", "format": "cell-based, rat", "conditions": "astrocytes pretreated 24 hr, neurons plated with HCA"}, "[4]": {"conditions": "200 μM competing compound, HEK293 cells, then 10 μM STCA 30 min"}}, "note": "“Also recorded” adds a separate entry of the source. Like-named read-outs stand apart in the source and are kept apart here."}
{"smiles": "C[S+]([O-])CCCCN=C=S", "note": "(stereo not drawn) [sulforaphane, reference compound]", "values": [{"measurement": "type of reporter activation by time-course", "setting": "[1]", "value": "immediate activation but gradual stabilization over time"}, {"measurement": "competition with Keap1 labeling by STCA", "setting": "FLAG-Keap1", "value": "decent competition; also recorded: inhibits Keap1 labeling completely"}]}
{"smiles": "Nc1ccccc1N", "note": "[oPD, ortho-phenylene diamine]", "values": [{"measurement": "lag-period of reporter activation", "setting": "[1]", "value": "40 to 50", "unit": "min"}]}
{"smiles": "Cc1cc(C2CCCCC2)n(O)c(=O)c1", "note": "[ciclopirox, reference compound]", "values": [{"measurement": "competition with Keap1 labeling by STCA", "setting": "FLAG-Keap1; [4]", "value": "no competition with Keap1 labeling"}]}
{"smiles": "CC(C)(C)c1cc(O)ccc1O", "note": "[TBHQ, tert-butylhydroquinone, reference compound]", "values": [{"measurement": "delay of ARE-luc reporter response", "setting": "ARE-luc reporter", "value": 3, "unit": "h"}, {"measurement": "type of reporter activation by time-course", "setting": "[1]", "value": "immediate activation but gradual stabilization over time"}, {"measurement": "activation of Neh2-luc reporter", "setting": "[1]; positive control, FIG. 1B", "value": "more than 10 fold"}, {"measurement": "competition with Keap1 labeling by STCA", "setting": "FLAG-Keap1; [4]", "value": "very modest competition; also recorded: competes very poorly"}, {"measurement": "toxicity in isolated neurons", "setting": "Immature neurons [2]", "value": "neurotoxic effects"}]}
{"smiles": "Oc1ccccc1O", "note": "[catechol, o-catechol]", "values": [{"measurement": "lag-period of reporter activation", "setting": "[1]", "value": 20, "unit": "min"}]}
{"smiles": "CC(=O)O[C@@H]1C[C@H]2C(C)(C)C(=O)C=C[C@]2(C)[C@H]2CC[C@@]3(C)[C@H](c4ccoc4)OC(=O)[C@H]4O[C@]43[C@@]21C", "note": "[GEDUNIN]", "values": [{"measurement": "GSH in astrocytes", "setting": "astrocytes", "value": "clearly show a boost in GSH"}, {"measurement": "toxicity in isolated neurons", "setting": "Immature neurons [3]", "value": "did not induce toxicity in isolated neurons"}, {"measurement": "activation at 16 µM", "setting": "Nrf2-Keap1 complex", "value": 222, "unit": "%"}, {"measurement": "activation at 32 µM", "setting": "Nrf2-Keap1 complex", "value": 184, "unit": "%"}, {"measurement": "100 nL (luminescence)", "setting": "Nrf2-Keap1 complex", "value": 4812}, {"measurement": "200 nL (luminescence)", "setting": "Nrf2-Keap1 complex", "value": 3708}, {"measurement": "type of reporter activation by time-course", "setting": "[1]", "value": "immediate activation but gradual stabilization over time; also recorded: immediate effect"}, {"measurement": "competition with Keap1 labeling by STCA", "setting": "FLAG-Keap1; [4]", "value": "very modest competition; also recorded: poorly compete with Keap1 labeling"}, {"measurement": "astrocyte-dependent neuroprotection", "setting": "primary immature neurons", "value": "induced significant neuroprotection"}]}
{"smiles": "COC1=C2C[C@@H](C)C[C@H](OC)[C@H](O)[C@@H](C)/C=C(\\C)[C@H](OC(N)=O)[C@@H](OC)/C=C\\C=C(/C)C(=O)NC(=CC1=O)C2=O", "note": "[geldanamycin, reference compound]", "values": [{"measurement": "activation effect", "setting": "[1]; in the range of 0.5-1.5 μM", "value": "2-3 fold"}]}
{"smiles": "CC(Cc1ccc(O)c(O)c1)C(C)Cc1ccc(O)c(O)c1", "note": "(stereo not drawn) [NDGA, nordihydroguaiaretic acid]", "values": [{"measurement": "GSH in astrocytes", "setting": "astrocytes; 24 hr, 10 μM NDGA, 24 μM gedunin, 20 μM fisetin", "value": "clearly show a boost in GSH"}, {"measurement": "type of reporter activation by time-course", "setting": "[1]", "value": "activation via a switch or receptor"}, {"measurement": "competition with Keap1 labeling by STCA", "setting": "FLAG-Keap1; [4]", "value": "poorly compete with Keap1 labeling"}, {"measurement": "astrocyte-dependent neuroprotection", "setting": "primary immature neurons", "value": "induced significant neuroprotection"}, {"measurement": "toxicity in isolated neurons", "setting": "Immature neurons [2]", "value": "did not induce toxicity in isolated neurons"}]}
{"smiles": "O=c1c(O)c(-c2ccc(O)c(O)c2)oc2cc(O)cc(O)c12", "note": "[quercetin, 3,5,7,3′,4′-pentahydroxyflavone]", "values": [{"measurement": "type of reporter activation by time-course", "setting": "[1]", "value": "immediate activation but gradual stabilization over time"}, {"measurement": "competition with Keap1 labeling by STCA", "setting": "FLAG-Keap1; [4]", "value": "very modest competition"}]}
{"smiles": "O=c1c(O)c(-c2ccc(O)c(O)c2)oc2cc(O)ccc12", "note": "[FISETIN]", "values": [{"measurement": "GSH in astrocytes", "setting": "astrocytes", "value": "does not show the same level of enhancement"}, {"measurement": "toxicity in isolated neurons", "setting": "Immature neurons [3]", "value": "did not induce toxicity in isolated neurons"}, {"measurement": "activation at 16 µM", "setting": "Nrf2-Keap1 complex", "value": 224, "unit": "%"}, {"measurement": "activation at 32 µM", "setting": "Nrf2-Keap1 complex", "value": 38, "unit": "%"}, {"measurement": "100 nL (luminescence)", "setting": "Nrf2-Keap1 complex", "value": 3360}, {"measurement": "200 nL (luminescence)", "setting": "Nrf2-Keap1 complex", "value": 1320}, {"measurement": "type of reporter activation by time-course", "setting": "[1]", "value": "activation via a switch or receptor"}, {"measurement": "competition with Keap1 labeling by STCA", "setting": "FLAG-Keap1; [4]", "value": "very modest competition; also recorded: poorly compete with Keap1 labeling"}, {"measurement": "astrocyte-dependent neuroprotection", "setting": "primary immature neurons", "value": "induced significant neuroprotection"}]}
